Test results reported in patent US20180021234A1, “Oral Care Compositions and Methods of Use” (Colgate-Palmolive Company, priority 2015, published 2018).

Key:
[1] = system: biofilms formed from native saliva on hydroxyapatite (HAP) disks; assay: Active-attachment biofilm model, lactic acid production (residual metabolic activity); format: cell-based; conditions: for metabolic activity relative to control groups (water) and variable groups: Example 5
Protocol: (§1) The active-attachment biofilm model has been previously described by Extercate et al. Caries Research 2010; 44: 372-379, the contents of which are incorporated by reference herein. The biofilm model consists of a metal lid with 24 clamps carrying hydroxyapatite (HAP) disks. The model is inoculated in 24-well plates with native saliva. Biofilms were formed via active recruitment of bacteria onto free-hanging HAP disks.
(§2) Treatment is performed after formation of a 24 h biofilm. Lactic acid production is determined to assess the residual metabolic activity of biofilms after repeated exposure to test products. The assay is conducted using a L-Lactate Assay Kit according to the manufacturer's protocol (Cayman Chemical Company, Cat. No. 700510).
The anti-metabolic activity of arginine alone and combined with zinc on bacteria in solutions and in toothpastes is measured by lactic acid production during a 3-hour window after the last treatment. The bacterial metabolic activity, as measured by lactic acid production, decreases in (toothpaste) groups with:
The antibacterial activity of serine and lysine is assessed individually and in combination with zinc and determined by lactic acid production during a 3-hour window after the last treatment according to Example 1.
The anti-metabolic activity of serine and lysine individually, and in combination with zinc, are tested. Using the biofilm model described in Example 1, antibacterial activity of serine and lysine is tested individually and in combination with zinc.

[2] = system: biofilms formed from native saliva on hydroxyapatite (HAP) disks; assay: Active-attachment biofilm model, colony forming units (live counts); format: cell-based; conditions: for number of CFUs relative to control solutions (water) and variable groups: Example 4; for number of CFUs relative to control solutions (water) and variable groups / Log CFU/ml: solutions; for Log CFU/ml: Example 4 (serine, lysine, with or without zinc)
Protocol: as §1, §2
Colony forming units (CFUs) are determined to assess the anti-bacterial efficacy of test solutions after repeated exposure to biofilms. HAP disks are removed from the lid and transferred to 1.5 ml CPW for sonication. CFUs are determined by colony counting. Statistical analysis was performed using Minitab 16 Software. ANOVA and Tukey test were performed on available CFU counts and lactic acid values.
Anti-bacterial efficacy of arginine alone and in combination with zinc in solutions and in toothpastes is tested by live counts using the biofilm model described in Example 1. The approximate number of live counts (CFUs) are as follows: […]

[3] = solution, lactic acid production during a 3-hour window after the last treatment
[4] = solutions, Example 5 (serine, lysine, with or without zinc)

Row | SMILES | Lactate [1, 3] [mM] | number of CFUs relative to control solutions (water) and variable groups [2] | Log CFU/ml [2] [Log CFU/ml] | metabolic activity relative to control groups (water) and variable groups ([1]; solutions) | Lactate [1, 4] [mM] | CFU/ml ([2]; solution, live counts, biofilm model of Example 1) [Log CFU/ml]
1 | O=C([O-])CC(O)(CC(=O)[O-])C(=O)[O-].O=C([O-])CC(O)(CC(=O)[O-])C(=O)[O-].[Zn+2].[Zn+2].[Zn+2] [0.25% zinc citrate, zinc citrate] | 6.0 |  |  |  |  | 
2 | NCCCC[C@H](N)C(=O)O [4% lysine, lysine] |  | do not demonstrate a decrease | 9.37 | do not demonstrate a decrease in metabolic activity | 2.7 | 
3 | [O-2].[Zn+2] [0.5% zinc oxide, zinc oxide] | 6.25 |  |  |  |  | 9.65
4 | N[C@@H](CO)C(=O)O [4% serine, serine] |  | do not demonstrate a decrease | 9.45 | do not demonstrate a decrease in metabolic activity | 2.4 | 
